One experiment concerns the target SARS-CoV-2 3CLpro (Severe acute respiratory syndrome coronavirus 2, UniProt P0DTD1). Put plainly: biochemical.
A further experiment addresses HCoV-229E 3CLpro (Human coronavirus 229E, UniProt P0C6X1). Nature of the experiment: HCoV-229E 3CLpro inhibition assay (FRET). The class given is biochemical.
The next experiment has as its target SARS-CoV 3CLpro (Severe acute respiratory syndrome coronavirus, UniProt P0C6X7). Put plainly: biochemical.
Another experiment deals with MERS-CoV 3CLpro (Middle East respiratory syndrome-related coronavirus, UniProt K9N7C7). Put plainly: biochemical.
MERS-CoV 3CLpro, sequence (K9N7C7 3248-3553): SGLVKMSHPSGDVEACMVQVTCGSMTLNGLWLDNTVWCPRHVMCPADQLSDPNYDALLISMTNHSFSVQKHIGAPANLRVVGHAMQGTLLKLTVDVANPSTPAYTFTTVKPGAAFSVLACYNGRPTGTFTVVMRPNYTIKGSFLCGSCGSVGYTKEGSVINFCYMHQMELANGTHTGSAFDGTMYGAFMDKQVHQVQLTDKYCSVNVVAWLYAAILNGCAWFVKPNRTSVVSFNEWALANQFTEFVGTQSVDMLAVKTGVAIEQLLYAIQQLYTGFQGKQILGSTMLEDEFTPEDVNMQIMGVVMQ

HCoV-229E 3CLpro, sequence (P0C6X1 2966-3267): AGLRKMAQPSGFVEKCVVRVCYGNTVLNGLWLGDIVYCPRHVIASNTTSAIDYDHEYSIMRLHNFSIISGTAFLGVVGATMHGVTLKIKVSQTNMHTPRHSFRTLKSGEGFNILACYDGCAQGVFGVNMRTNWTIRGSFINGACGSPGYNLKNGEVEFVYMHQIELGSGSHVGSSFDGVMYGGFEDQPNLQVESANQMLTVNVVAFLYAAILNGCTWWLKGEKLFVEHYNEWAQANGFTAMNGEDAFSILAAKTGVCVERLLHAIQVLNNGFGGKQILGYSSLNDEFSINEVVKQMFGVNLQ

Usually IC50 stands for the concentration that inhibits the measured activity by half. Low readings indicate inhibition by little substance, high ones a need for much substance. `CC(C)(C)[C@H](NC(=O)C1CC1)C(=O)N1C[C@@H]2CCC[C@@H]2[C@H]1C(=O)NN(C[C@@H]1CCNC1=O)C(=O)[C@H](F)Cl` [Example 31, N-[(1S)-1-[(3S,3aS,6aR)-3-[[[(2R)-2-chloro-2-fluoro-acetyl]-[[(3S)-2-oxopyrrolidin-3-yl]methyl]amino]carbamoyl]-3,3a,4,5,6,6a-hexahydro-1H-cyclopenta[c]pyrrole-2-carbonyl]-2,2-dimethyl-propyl]cyclopropanecarboxamide]: the IC50 on SARS-CoV-2 3CLpro was determined as 0.008 µM; against HCoV-229E 3CLpro, 0.028 µM; against SARS-CoV 3CLpro it was 0.012 µM; against MERS-CoV 3CLpro, 0.076 µM.
Turning to `CCC(=O)N[C@H](C(=O)N1C[C@@H]2CCC[C@@H]2[C@H]1C(=O)NN(C[C@@H]1CCNC1=O)C(=O)[C@H](F)Cl)C(C)(C)C` [Example 32, N-[(1S)-1-[(3S,3aS,6aR)-3-[[[(2R)-2-chloro-2-fluoro-acetyl]-[[(3S)-2-oxopyrrolidin-3-yl]methyl]amino]carbamoyl]-3,3a,4,5,6,6a-hexahydro-1H-cyclopenta[c]pyrrole-2-carbonyl]-2,2-dimethyl-propyl]propanamide], the 50% inhibitory concentration (IC50) amounted to 0.007 µM against SARS-CoV-2 3CLpro, 0.023 µM at HCoV-229E 3CLpro, 0.01 µM on SARS-CoV 3CLpro and 0.08 µM on MERS-CoV 3CLpro.
The matching figures for `CC(C)C(=O)N[C@H](C(=O)N1C[C@@H]2CCC[C@@H]2[C@H]1C(=O)NN(C[C@@H]1CCNC1=O)C(=O)[C@H](F)Cl)C(C)(C)C` [Example 33, N-[(1S)-1-[(3S,3aS,6aR)-3-[[[(2R)-2-chloro-2-fluoro-acetyl]-[[(3S)-2-oxopyrrolidin-3-yl]methyl]amino]carbamoyl]-3,3a,4,5,6,6a-hexahydro-1H-cyclopenta[c]pyrrole-2-carbonyl]-2,2-dimethyl-propyl]-2-methyl-propanamide]: 0.007 µM, 0.027 µM, 0.008 µM and 0.079 µM.
For `CC(C)(F)C(=O)N[C@H](C(=O)N1C[C@@H]2CCC[C@@H]2[C@H]1C(=O)NN(C[C@@H]1CCNC1=O)C(=O)[C@H](F)Cl)C(C)(C)C` [Example 35, N-[(1S)-1-[(3S,3aS,6aR)-3-[[[(2R)-2-chloro-2-fluoro-acetyl]-[[(3S)-2-oxopyrrolidin-3-yl]methyl]amino]carbamoyl]-3,3a,4,5,6,6a-hexahydro-1H-cyclopenta[c]pyrrole-2-carbonyl]-2,2-dimethyl-propyl]-2-fluoro-2-methyl-propanamide], in that order: 0.008 µM, 0.023 µM, 0.008 µM and 0.06 µM.
As for `CC[C@H](C)[C@H](NC(=O)C1CC1)C(=O)N1C[C@@H]2CCC[C@@H]2[C@H]1C(=O)NN(C[C@@H]1CCNC1=O)C(=O)[C@H](F)Cl` [Example 37, N-[(1S,2S)-1-[(3S,3aS,6aR)-3-[[[(2R)-2-chloro-2-fluoro-acetyl]-[[(3S)-2-oxopyrrolidin-3-yl]methyl]amino]carbamoyl]-3,3a,4,5,6,6a-hexahydro-1H-cyclopenta[c]pyrrole-2-carbonyl]-2-methyl-butyl]cyclopropanecarboxamide], the half-maximal inhibitory concentration (IC50) at SARS-CoV-2 3CLpro was 0.009 µM; against HCoV-229E 3CLpro it was 0.029 µM; on SARS-CoV 3CLpro, 0.011 µM; against MERS-CoV 3CLpro, 0.076 µM.
The matching figures for `CCC(=O)N[C@H](C(=O)N1C[C@@H]2CCC[C@@H]2[C@H]1C(=O)NN(C[C@@H]1CCNC1=O)C(=O)[C@H](F)Cl)[C@@H](C)CC` [Example 38, N-[(1S,2S)-1-[(3S,3aS,6aR)-3-[[[(2R)-2-chloro-2-fluoro-acetyl]-[[(3S)-2-oxopyrrolidin-3-yl]methyl]amino]carbamoyl]-3,3a,4,5,6,6a-hexahydro-1H-cyclopenta[c]pyrrole-2-carbonyl]-2-methyl-butyl]propanamide]: 0.008 µM, 0.029 µM, 0.01 µM and 0.072 µM.
As to `CC[C@H](C)[C@H](NC(=O)C(F)F)C(=O)N1C[C@@H]2CCC[C@@H]2[C@H]1C(=O)NN(C[C@@H]1CCNC1=O)C(=O)[C@H](F)Cl` [Example 39, N-[(1S,2S)-1-[(3S,3aS,6aR)-3-[[[(2R)-2-chloro-2-fluoro-acetyl]-[[(3S)-2-oxopyrrolidin-3-yl]methyl]amino]carbamoyl]-3,3a,4,5,6,6a-hexahydro-1H-cyclopenta[c]pyrrole-2-carbonyl]-2-methyl-butyl]-2,2-difluoro-acetamide], the concentration for half-maximal inhibition (IC50) came out at 0.009 µM against SARS-CoV-2 3CLpro, 0.029 µM against HCoV-229E 3CLpro, 0.011 µM against SARS-CoV 3CLpro and 0.071 µM against MERS-CoV 3CLpro.
The matching figures for `CC[C@H](C)[C@H](NC(=O)C(C)(F)F)C(=O)N1C[C@@H]2CCC[C@@H]2[C@H]1C(=O)NN(C[C@@H]1CCNC1=O)C(=O)[C@H](F)Cl` [Example 40, N-[(1S,2S)-1-[(3S,3aS,6aR)-3-[[[(2R)-2-chloro-2-fluoro-acetyl]-[[(3S)-2-oxopyrrolidin-3-yl]methyl]amino]carbamoyl]-3,3a,4,5,6,6a-hexahydro-1H-cyclopenta[c]pyrrole-2-carbonyl]-2-methyl-butyl]-2,2-difluoro-propanamide]: 0.021 µM, 0.027 µM, 0.013 µM and 0.05 µM.
For `CC[C@H](C)[C@H](NC(=O)C(C)(C)F)C(=O)N1C[C@@H]2CCC[C@@H]2[C@H]1C(=O)NN(C[C@@H]1CCNC1=O)C(=O)[C@H](F)Cl` [Example 42, N-[(1S,2S)-1-[(3S,3aS,6aR)-3-[[[(2R)-2-chloro-2-fluoro-acetyl]-[[(3S)-2-oxopyrrolidin-3-yl]methyl]amino]carbamoyl]-3,3a,4,5,6,6a-hexahydro-1H-cyclopenta[c]pyrrole-2-carbonyl]-2-methyl-butyl]-2-fluoro-2-methyl-propanamide], in that order: 0.007 µM, 0.024 µM, 0.009 µM and 0.082 µM.
For `CC[C@H](C)[C@H](NC(=O)C(C)(C)C)C(=O)N1C[C@@H]2CCC[C@@H]2[C@H]1C(=O)NN(C[C@@H]1CCNC1=O)C(=O)[C@H](F)Cl` [Example 44, N-[(1S,2S)-1-[(3S,3aS,6aR)-3-[[[(2R)-2-chloro-2-fluoro-acetyl]-[[(3S)-2-oxopyrrolidin-3-yl]methyl]amino]carbamoyl]-3,3a,4,5,6,6a-hexahydro-1H-cyclopenta[c]pyrrole-2-carbonyl]-2-methyl-butyl]-2,2-dimethyl-propanamide], in that order: 0.008 µM, 0.023 µM, 0.011 µM and 0.055 µM.
Consider `CC[C@H](C)[C@H](NC(=O)CC(F)(F)F)C(=O)N1C[C@@H]2CCC[C@@H]2[C@H]1C(=O)NN(C[C@@H]1CCNC1=O)C(=O)[C@H](F)Cl` [Example 45, N-[(1S,2S)-1-[(3S,3aS,6aR)-3-[[[(2R)-2-chloro-2-fluoro-acetyl]-[[(3S)-2-oxopyrrolidin-3-yl]methyl]amino]carbamoyl]-3,3a,4,5,6,6a-hexahydro-1H-cyclopenta[c]pyrrole-2-carbonyl]-2-methyl-butyl]-3,3,3-trifluoro-propanamide], for which the IC50 against SARS-CoV-2 3CLpro amounted to 0.019 µM; against HCoV-229E 3CLpro, 0.035 µM; against SARS-CoV 3CLpro it was 0.01 µM; at MERS-CoV 3CLpro, 0.104 µM.
Take `CCCC(=O)N[C@H](C(=O)N1C[C@@H]2CCC[C@@H]2[C@H]1C(=O)NN(C[C@@H]1CCNC1=O)C(=O)[C@H](F)Cl)[C@@H](C)CC` [Example 46, N-[(1S,2S)-1-[(3S,3aS,6aR)-3-[[[(2R)-2-chloro-2-fluoro-acetyl]-[[(3S)-2-oxopyrrolidin-3-yl]methyl]amino]carbamoyl]-3,3a,4,5,6,6a-hexahydro-1H-cyclopenta[c]pyrrole-2-carbonyl]-2-methyl-butyl]butanamide]: the concentration for half-maximal inhibition (IC50) amounted to 0.008 µM on SARS-CoV-2 3CLpro, 0.049 µM against HCoV-229E 3CLpro, 0.029 µM against SARS-CoV 3CLpro and 0.152 µM against MERS-CoV 3CLpro.
For `CC[C@H](C)[C@H](NC(=O)C(C)C)C(=O)N1C[C@@H]2CCC[C@@H]2[C@H]1C(=O)NN(C[C@@H]1CCNC1=O)C(=O)[C@H](F)Cl` [Example 47, N-[(1S,2S)-1-[(3S,3aS,6aR)-3-[[[(2R)-2-chloro-2-fluoro-acetyl]-[[(3S)-2-oxopyrrolidin-3-yl]methyl]amino]carbamoyl]-3,3a,4,5,6,6a-hexahydro-1H-cyclopenta[c]pyrrole-2-carbonyl]-2-methyl-butyl]-2-methyl-propanamide], in that order: 0.007 µM, 0.026 µM, 0.012 µM and 0.076 µM.
Regarding `CC[C@H](C)[C@H](NC(=O)C(F)(F)F)C(=O)N1C[C@@H]2CCC[C@@H]2[C@H]1C(=O)NN(C[C@@H]1CCNC1=O)C(=O)[C@H](F)Cl` [Example 48, N-[(1S,2S)-1-[(3S,3aS,6aR)-3-[[[(2R)-2-chloro-2-fluoro-acetyl]-[[(3S)-2-oxopyrrolidin-3-yl]methyl]amino]carbamoyl]-3,3a,4,5,6,6a-hexahydro-1H-cyclopenta[c]pyrrole-2-carbonyl]-2-methyl-butyl]-2,2,2-trifluoro-acetamide], the IC50 at SARS-CoV-2 3CLpro amounted to 0.012 µM; against HCoV-229E 3CLpro, 0.022 µM; against SARS-CoV 3CLpro, 0.012 µM; at MERS-CoV 3CLpro, 0.056 µM.
In the case of `CC[C@H](C)[C@H](NC(=O)C(Cl)Cl)C(=O)N1C[C@@H]2CCC[C@@H]2[C@H]1C(=O)NN(C[C@@H]1CCNC1=O)C(=O)[C@H](F)Cl` [Example 49, N-[(1S,2S)-1-[(3S,3aS,6aR)-3-[[[(2R)-2-chloro-2-fluoro-acetyl]-[[(3S)-2-oxopyrrolidin-3-yl]methyl]amino]carbamoyl]-3,3a,4,5,6,6a-hexahydro-1H-cyclopenta[c]pyrrole-2-carbonyl]-2-methyl-butyl]-2,2-dichloro-acetamide], the half-inhibitory concentration (IC50) against SARS-CoV-2 3CLpro came to 0.007 µM; against HCoV-229E 3CLpro, 0.033 µM; on SARS-CoV 3CLpro, 0.013 µM; against MERS-CoV 3CLpro, 0.096 µM.

Source of the values: US20250059171A1 (Hoffmann-La Roche Inc., priority 2021, published 2025).
